Test results taken from US20230339889A1, “DERIVATIVES OF 2-OXO-N-(4-(PYRIMIDIN-4-YLOXY/THIO)PHENYL)-1,2-DIHYDROPYRIDINE-3-CARBOXAMIDE FOR USE AS PROTEIN KINASE INHIBITORS FOR THERAPY” (AUCENTRA THERAPEUTICS PTY LTD, priority 2020, published 2023).

How the values were obtained:
MET = biological target: T1, MET (Homo sapiens, UniProt P08581); assay: Filter-binding radiometric kinase activity assay (KinaseProfiler, Eurofins); assay type: biochemical; details: 1 µM compound; read-out: % Residual enzymatic activity at 1 µM MET
T1 construct: purchased Eurofins Discovery (Kinase Profiler service)

Mer = biological target: T2, Mer (Homo sapiens, UniProt Q12866); assay: as above; assay type: biochemical; details: 1 µM compound; read-out: % Residual enzymatic activity at 1 µM Mer
T2 construct: purchased Eurofins Discovery (Kinase Profiler service)
T2 sequence (Q12866 21-999): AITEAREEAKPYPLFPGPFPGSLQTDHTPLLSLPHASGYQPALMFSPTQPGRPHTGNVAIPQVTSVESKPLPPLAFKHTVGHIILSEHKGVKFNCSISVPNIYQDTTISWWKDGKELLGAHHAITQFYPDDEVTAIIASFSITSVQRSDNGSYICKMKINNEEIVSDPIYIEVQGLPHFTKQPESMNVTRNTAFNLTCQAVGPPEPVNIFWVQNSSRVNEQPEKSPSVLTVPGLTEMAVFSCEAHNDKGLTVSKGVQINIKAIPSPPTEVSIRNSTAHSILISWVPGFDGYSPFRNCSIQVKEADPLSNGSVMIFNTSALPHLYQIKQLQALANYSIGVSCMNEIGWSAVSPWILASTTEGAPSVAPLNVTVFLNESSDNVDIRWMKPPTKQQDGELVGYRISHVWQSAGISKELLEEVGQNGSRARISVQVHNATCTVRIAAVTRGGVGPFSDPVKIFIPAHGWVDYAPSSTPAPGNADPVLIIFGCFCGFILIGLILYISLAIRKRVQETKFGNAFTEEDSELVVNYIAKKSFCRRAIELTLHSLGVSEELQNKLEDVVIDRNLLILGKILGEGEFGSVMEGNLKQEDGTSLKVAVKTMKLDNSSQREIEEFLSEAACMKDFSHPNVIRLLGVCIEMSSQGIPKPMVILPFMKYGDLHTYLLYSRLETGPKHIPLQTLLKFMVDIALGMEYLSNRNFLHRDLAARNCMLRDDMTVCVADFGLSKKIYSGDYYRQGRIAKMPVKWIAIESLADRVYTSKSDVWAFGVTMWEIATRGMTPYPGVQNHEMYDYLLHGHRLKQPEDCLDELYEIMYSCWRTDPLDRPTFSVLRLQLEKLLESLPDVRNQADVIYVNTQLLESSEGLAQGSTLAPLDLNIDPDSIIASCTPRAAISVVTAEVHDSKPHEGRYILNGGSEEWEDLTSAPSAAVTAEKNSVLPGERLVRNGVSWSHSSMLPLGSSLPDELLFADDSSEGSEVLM

AXL = biological target: T3, AXL (Homo sapiens, UniProt P30530); assay: as above; assay type: biochemical; details: 1 µM compound; read-out: % Residual enzymatic activity at 1 µM AXL
T3 construct: purchased Eurofins Discovery (Kinase Profiler service)
T3 sequence (P30530 26-894): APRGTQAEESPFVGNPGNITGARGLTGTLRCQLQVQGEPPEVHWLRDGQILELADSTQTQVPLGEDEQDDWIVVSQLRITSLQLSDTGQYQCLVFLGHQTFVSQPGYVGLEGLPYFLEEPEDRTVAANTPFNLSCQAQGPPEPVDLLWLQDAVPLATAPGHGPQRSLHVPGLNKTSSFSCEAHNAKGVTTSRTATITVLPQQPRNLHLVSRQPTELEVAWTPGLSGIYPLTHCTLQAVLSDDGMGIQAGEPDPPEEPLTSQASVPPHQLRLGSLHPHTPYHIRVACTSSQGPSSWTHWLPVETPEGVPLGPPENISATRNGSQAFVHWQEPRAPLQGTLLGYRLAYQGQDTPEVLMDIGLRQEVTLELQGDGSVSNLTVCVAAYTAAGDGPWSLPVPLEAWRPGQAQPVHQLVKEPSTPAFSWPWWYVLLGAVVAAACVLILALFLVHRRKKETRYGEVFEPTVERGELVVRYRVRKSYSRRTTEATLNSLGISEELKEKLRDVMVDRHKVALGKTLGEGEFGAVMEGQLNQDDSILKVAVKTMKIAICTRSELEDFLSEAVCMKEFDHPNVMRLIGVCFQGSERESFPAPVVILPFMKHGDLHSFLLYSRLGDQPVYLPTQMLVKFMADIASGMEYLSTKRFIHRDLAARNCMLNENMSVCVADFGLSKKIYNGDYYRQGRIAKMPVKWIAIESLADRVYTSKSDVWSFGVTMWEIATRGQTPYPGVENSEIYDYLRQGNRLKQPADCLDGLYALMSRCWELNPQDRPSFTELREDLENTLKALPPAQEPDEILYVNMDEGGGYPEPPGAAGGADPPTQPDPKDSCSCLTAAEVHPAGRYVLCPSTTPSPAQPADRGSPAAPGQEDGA

CDK2E = CDK2E (Homo sapiens, UniProt P24941); assay: ADP Glo Kinase assay; assay type: biochemical; details: 1 µM compound; read-out: % Residual enzymatic activity at 1 µM CDK2E
Method: (§1) Inhibition of CDKs and FLT3 were determined using ADP Glo Kinase assays, as previously described in International Patent Publication No WO 2017/020065.

CDK4D1 = CDK4D1 (Homo sapiens, UniProt P11802); assay: ADP Glo Kinase assay; assay type: biochemical; details: 1 µM compound; read-out: % Residual enzymatic activity at 1 µM CDK4D1
Method: as §1

FLT3-ITD = assay: ADP Glo Kinase assay; assay type: biochemical; details: 1 µM compound
Method: as §1

MV4-11 = assay: Proliferation assay (MTT, leukaemia cancer cell line); assay type: cell-based; details: Homo sapiens; 1 µM compound, MV4-11 cells
Source text: (§2) Compounds from Example 1 were subjected to standard resazurin and MTT assays on solid tumour and leukaemia cancer cell lines, respectively, as previously reported (Wang S et al., J Med Chem 47:1662-1675, 2004 and Diab S et al., CheMedChem 9:962-972, 2014).

MDA-MB-231 = assay: Proliferation assay (resazurin, solid tumour cell line); assay type: cell-based; details: Homo sapiens; MDA-MB-231 cells
Source text: as §2

T1 sequence (P08581 25-1390): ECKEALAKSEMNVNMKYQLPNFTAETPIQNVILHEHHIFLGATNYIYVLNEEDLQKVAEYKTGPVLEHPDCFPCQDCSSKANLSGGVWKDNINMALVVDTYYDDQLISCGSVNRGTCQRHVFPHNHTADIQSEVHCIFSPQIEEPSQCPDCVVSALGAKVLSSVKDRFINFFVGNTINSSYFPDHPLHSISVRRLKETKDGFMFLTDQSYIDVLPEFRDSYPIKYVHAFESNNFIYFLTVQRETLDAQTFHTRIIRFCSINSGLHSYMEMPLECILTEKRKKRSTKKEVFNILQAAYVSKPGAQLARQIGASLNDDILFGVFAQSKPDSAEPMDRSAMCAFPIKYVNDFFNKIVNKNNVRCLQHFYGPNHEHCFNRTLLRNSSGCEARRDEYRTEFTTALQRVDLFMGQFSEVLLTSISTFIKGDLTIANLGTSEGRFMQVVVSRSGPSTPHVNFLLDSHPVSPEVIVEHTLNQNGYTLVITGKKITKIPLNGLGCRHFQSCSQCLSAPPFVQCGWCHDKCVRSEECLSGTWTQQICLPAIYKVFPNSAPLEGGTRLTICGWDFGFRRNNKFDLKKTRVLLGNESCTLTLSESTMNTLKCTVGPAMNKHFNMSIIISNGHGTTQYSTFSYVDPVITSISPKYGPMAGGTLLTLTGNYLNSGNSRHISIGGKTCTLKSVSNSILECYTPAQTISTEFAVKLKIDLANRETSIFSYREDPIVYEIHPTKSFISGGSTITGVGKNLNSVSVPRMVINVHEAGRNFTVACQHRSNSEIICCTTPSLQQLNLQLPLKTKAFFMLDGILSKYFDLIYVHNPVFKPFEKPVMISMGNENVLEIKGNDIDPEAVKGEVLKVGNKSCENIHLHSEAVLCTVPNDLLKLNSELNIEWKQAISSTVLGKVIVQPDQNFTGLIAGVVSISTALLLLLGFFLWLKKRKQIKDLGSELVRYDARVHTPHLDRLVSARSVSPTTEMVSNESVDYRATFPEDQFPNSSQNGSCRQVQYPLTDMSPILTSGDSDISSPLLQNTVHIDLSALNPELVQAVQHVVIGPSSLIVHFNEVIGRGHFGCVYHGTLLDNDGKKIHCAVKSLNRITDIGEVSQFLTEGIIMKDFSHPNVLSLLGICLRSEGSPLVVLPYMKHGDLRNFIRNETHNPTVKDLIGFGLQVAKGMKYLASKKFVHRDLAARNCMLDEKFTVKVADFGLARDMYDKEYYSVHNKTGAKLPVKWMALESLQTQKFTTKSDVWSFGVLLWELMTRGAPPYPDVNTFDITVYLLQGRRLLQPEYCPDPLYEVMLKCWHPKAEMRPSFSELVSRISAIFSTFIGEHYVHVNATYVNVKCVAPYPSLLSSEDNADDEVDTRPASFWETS
Sequence of CDK4D1 (P11802 whole entry): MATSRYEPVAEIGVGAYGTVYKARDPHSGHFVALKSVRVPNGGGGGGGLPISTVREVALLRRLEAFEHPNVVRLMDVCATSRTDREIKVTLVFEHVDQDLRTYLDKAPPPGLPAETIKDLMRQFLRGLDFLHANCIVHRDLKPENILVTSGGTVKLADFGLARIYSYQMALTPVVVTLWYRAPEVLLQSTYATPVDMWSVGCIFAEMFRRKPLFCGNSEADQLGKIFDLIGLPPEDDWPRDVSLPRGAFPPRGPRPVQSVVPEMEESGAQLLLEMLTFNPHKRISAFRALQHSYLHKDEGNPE
Sequence of CDK4D1 (P24385 whole entry partner): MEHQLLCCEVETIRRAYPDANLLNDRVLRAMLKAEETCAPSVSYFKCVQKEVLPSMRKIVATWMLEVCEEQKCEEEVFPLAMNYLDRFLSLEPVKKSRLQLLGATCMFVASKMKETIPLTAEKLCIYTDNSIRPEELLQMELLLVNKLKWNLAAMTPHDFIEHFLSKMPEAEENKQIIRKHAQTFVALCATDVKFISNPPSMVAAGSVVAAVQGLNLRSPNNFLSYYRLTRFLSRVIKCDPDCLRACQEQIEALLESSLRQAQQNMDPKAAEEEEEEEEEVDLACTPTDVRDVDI

| remaining activity at 1 µM (MET) [%] | remaining activity at 1 µM (Mer) [%] | remaining activity at 1 µM (AXL) [%] | remaining activity at 1 µM (CDK2E) [%] | remaining activity at 1 µM (CDK4D1) [%] | % Residual enzymatic activity at 1 µM FLT3-ITD (FLT3-ITD) [%] | GI50 (MDA-MB-231) [µM] | Compound | activity at 1 µM (MV4-11) [%] |
| --- | --- | --- | --- | --- | --- | --- | --- | --- |
| -5 | 19 | -1 | 97 | 48 | 33 | 2.7 | Nc1ncnc(Oc2ccc(NC(=O)c3cccn(-c4ccc(F)cc4)c3=O)cc2)c1Cl [Cmpd 4, N-(4-((6-amino-5-chloropyrimidin-4-yl)oxy)phenyl)-1-(4-fluorophenyl)-2-oxo-1,2-dihydropyridine-3-carboxamide] | 6 |
| -5 | 0 | -8 | 92 | 72 | 43 | 0.9 | Nc1ncnc(Oc2ccc(NC(=O)c3cccn(-c4ccc(F)cc4)c3=O)c(F)c2)c1Cl [Cmpd 5, N-(4-((6-amino-5-chloropyrimidin-4-yl)oxy)-2-fluorophenyl)-1-(4-fluorophenyl)-2-oxo-1,2-dihydropyridine-3-carboxamide] | 6 |
| 0 | 12 | 13 | 99 | 40 | 50 | 1.2 | Nc1ncnc(Oc2ccc(NC(=O)c3cccn(-c4ccc(F)cc4)c3=O)cc2F)c1F [Cmpd 1, N-(4-((6-amino-5-fluoropyrimidin-4-yl)oxy)-3-fluorophenyl)-1-(4-fluorophenyl)-2-oxo-1,2-dihydropyridine-3-carboxamide] | 3 |
| -7 | 6 | 4 | 96 | 69 | 49 | 7.9 | Nc1ncnc(Oc2ccc(NC(=O)c3cccn(-c4ccc(F)cc4)c3=O)cc2F)c1Cl [Cmpd 3, N-(4-((6-amino-5-chloropyrimidin-4-yl)oxy)-3-fluorophenyl)-1-(4-fluorophenyl)-2-oxo-1,2-dihydropyridine-3-carboxamide] | 3 |
| 8 | 14 | 14 | 89 | 69 | 79 | 8.9 | Nc1ncnc(Oc2ccc(NC(=O)c3cccn(-c4ccc(F)cc4)c3=O)cc2)c1F [Cmpd 6, N-(4-((6-amino-5-fluoropyrimidin-4-yl)oxy)phenyl)-1-(4-fluorophenyl)-2-oxo-1,2-dihydropyridine-3-carboxamide] | 3 |
| -6 | 4 | 8 | 80 | 72 | 40 | 2.3 | Nc1ncnc(Oc2ccc(NC(=O)c3cccn(-c4ccc(F)cc4)c3=O)c(F)c2)c1F [Cmpd 7, N-(4-((6-amino-5-fluoropyrimidin-4-yl)oxy)-2-fluorophenyl)-1-(4-fluorophenyl)-2-oxo-1,2-dihydropyridine-3-carboxamide] | 6 |
